Test results taken from US20050107473A1, “Process for producing tert-leucine” (AJINOMOTO CO. INC, priority 2002, published 2005).

Test: solubility of L-tert-leucine in aqueous solutions
Assay type: physicochemical
Settings: 10° C.

solubility in 1N aqueous hydrochloric acid solution (1N aqueous hydrochloric acid solution): 20.4 wt % | solubility in water (water): 12.7 wt %
SMILES: CC(C)(C)[C@H](N)C(=O)O [L-tert-leucine]
